{"source": "paper PMC5218480", "about": "(PLoS ONE, 2017)", "test_system": "MV-4-11 cells", "test": "Gene expression microarray analysis (Affymetrix PrimeView) and GSEA", "assay_type": "cell-based, human", "design": "RFU PODN (11730768_x_at) / Fold change /veh PODN (11730768_x_at) / RFU LINC00158 (11744669_a_at) / Fold change /veh LINC00158 (11744669_a_at) / RFU DUSP10 (11751237_a_at) / Fold change /veh DUSP10 (11751237_a_at) / RFU ID3 (11757404_x_at) / Fold change /veh ID3 (11757404_x_at) / RFU PLEKHG5 (11737974_s_at) / Fold change /veh PLEKHG5 (11737974_s_at) / RFU LRRC4B (11730491_at) / Fold change /veh LRRC4B (11730491_at) / RFU GIMAP4 (11747438_a_at) / Fold change /veh GIMAP4 (11747438_a_at) / RFU KRT8 (11758183_x_at) / Fold change /veh KRT8 (11758183_x_at) / RFU CNN1 (11734310_a_at) / Fold change /veh CNN1 (11734310_a_at) / RFU VPS37D (11726825_at) / Fold change /veh VPS37D (11726825_at) / RFU C10orf10 (11716522_x_at) / Fold change /veh C10orf10 (11716522_x_at) / RFU KIR2DL2 /// KIR2DL4 /// KIR2DL5A /// KIR2DL5B /// KIR2DS1 /// KIR2DS2 /// KIR2DS3 /// KIR2DS4 /// KIR3DL3 /// KIR3DL3 /// KIR3DS1 (11738374_at) / Fold change /veh KIR2DL2 /// KIR2DL4 /// KIR2DL5A /// KIR2DL5B /// KIR2DS1 /// KIR2DS2 /// KIR2DS3 /// KIR2DS4 /// KIR3DL3 /// KIR3DL3 /// KIR3DS1 (11738374_at) / RFU C1QL1 (11718748_at) / Fold change /veh C1QL1 (11718748_at) / RFU TMPRSS4 (11747572_a_at) / Fold change /veh TMPRSS4 (11747572_a_at) / RFU HAMP (11756126_x_at) / Fold change /veh HAMP (11756126_x_at) / RFU RNFT2 (11725882_a_at) / Fold change /veh RNFT2 (11725882_a_at) / RFU NR4A2 (11747474_a_at) / Fold change /veh NR4A2 (11747474_a_at) / RFU ABCC12 (11746883_a_at) / Fold change /veh ABCC12 (11746883_a_at) / RFU TMEM136 (11760407_x_at) / Fold change /veh TMEM136 (11760407_x_at) / RFU CLDN22 /// WWC2 (11732394_at) / Fold change /veh CLDN22 /// WWC2 (11732394_at) / RFU HLA-DPB1 (11760878_x_at) / Fold change /veh HLA-DPB1 (11760878_x_at) / RFU SPINT1 (11716480_a_at) / Fold change /veh SPINT1 (11716480_a_at) / RFU GAP43 (11754022_s_at) / Fold change /veh GAP43 (11754022_s_at) / RFU A4GNT (11735810_at) / Fold change /veh A4GNT (11735810_at) / RFU PRB3 (11715151_x_at) / Fold change /veh PRB3 (11715151_x_at) / RFU TUBB4B (11761932_at) / Fold change /veh TUBB4B (11761932_at) / RFU CAPN14 (11732068_a_at) / Fold change /veh CAPN14 (11732068_a_at) / RFU TMCC2 (11721928_a_at) / Fold change /veh TMCC2 (11721928_a_at) / RFU IRGQ (11745062_a_at) / Fold change /veh IRGQ (11745062_a_at) / RFU FAM174B (11720279_a_at) / Fold change /veh FAM174B (11720279_a_at) / RFU TMPRSS4 (11748680_a_at) / Fold change /veh TMPRSS4 (11748680_a_at) / RFU FAM212B (11763350_a_at) / Fold change /veh FAM212B (11763350_a_at) / RFU PLEKHG5 (11743358_a_at) / Fold change /veh PLEKHG5 (11743358_a_at) / RFU ZSCAN30 (11745921_a_at) / Fold change /veh ZSCAN30 (11745921_a_at) / RFU CMKLR1 (11741424_a_at) / Fold change /veh CMKLR1 (11741424_a_at) / RFU LOC101060620 /// MAPK8IP1 (11723275_at) / Fold change /veh LOC101060620 /// MAPK8IP1 (11723275_at) / RFU SPTSSB (11747773_x_at) / Fold change /veh SPTSSB (11747773_x_at) / RFU PRSS12 (11739890_at) / Fold change /veh PRSS12 (11739890_at) / RFU BIN1 (11741810_x_at) / Fold change /veh BIN1 (11741810_x_at) / RFU WNT11 (11732464_a_at) / Fold change /veh WNT11 (11732464_a_at) / RFU C10orf10 (11716521_a_at) / Fold change /veh C10orf10 (11716521_a_at) / RFU C5orf56 (11738089_at) / Fold change /veh C5orf56 (11738089_at) / RFU CYB561 (11721691_x_at) / Fold change /veh CYB561 (11721691_x_at) / RFU ANKRD19P (11752326_a_at) / Fold change /veh ANKRD19P (11752326_a_at) / RFU OR2T12 /// OR2T33 /// OR2T8 (11738714_s_at) / Fold change /veh OR2T12 /// OR2T33 /// OR2T8 (11738714_s_at) / RFU VCAN (11748164_a_at) / Fold change /veh VCAN (11748164_a_at) / RFU JSRP1 (11732532_at) / Fold change /veh JSRP1 (11732532_at) / RFU KRTAP10-11 (11738290_x_at) / Fold change /veh KRTAP10-11 (11738290_x_at) / RFU MYO3A (11730013_a_at) / Fold change /veh MYO3A (11730013_a_at) / RFU EBF3 (11725865_a_at) / Fold change /veh EBF3 (11725865_a_at) / RFU CAMK2N1 (11719241_x_at) / Fold change /veh CAMK2N1 (11719241_x_at) / RFU C5orf56 (11738088_a_at) / Fold change /veh C5orf56 (11738088_a_at) / RFU OLFML3 (11715873_a_at) / Fold change /veh OLFML3 (11715873_a_at) / RFU LOC100653217 /// NTM (11731650_a_at) / Fold change /veh LOC100653217 /// NTM (11731650_a_at) / RFU MAPK11 (11762145_a_at) / Fold change /veh MAPK11 (11762145_a_at) / RFU FIZ1 (11724087_x_at) / Fold change /veh FIZ1 (11724087_x_at) / RFU OASL (11726364_x_at) / Fold change /veh OASL (11726364_x_at) / RFU SOX15 (11748057_x_at) / Fold change /veh SOX15 (11748057_x_at) / RFU CD79A (11719716_a_at) / Fold change /veh CD79A (11719716_a_at) / RFU HIST1H1D (11736915_at) / Fold change /veh HIST1H1D (11736915_at) / RFU CASKIN2 (11723855_a_at) / Fold change /veh CASKIN2 (11723855_a_at) / RFU LOC730098 (11760151_x_at) / Fold change /veh LOC730098 (11760151_x_at) / RFU OR4N2 (11742367_at) / Fold change /veh OR4N2 (11742367_at) / RFU PRRT2 (11749266_a_at) / Fold change /veh PRRT2 (11749266_a_at) / RFU SNX32 (11753110_a_at) / Fold change /veh SNX32 (11753110_a_at) / RFU CDHR5 (11726645_a_at) / Fold change /veh CDHR5 (11726645_a_at) / RFU RCAN1 (11760418_a_at) / Fold change /veh RCAN1 (11760418_a_at) / RFU FAM167A (11723789_a_at) / Fold change /veh FAM167A (11723789_a_at) / RFU FAM26E (11764081_at) / Fold change /veh FAM26E (11764081_at) / RFU ISYNA1 (11749810_s_at) / Fold change /veh ISYNA1 (11749810_s_at) / RFU ACY1 (11761880_at) / Fold change /veh ACY1 (11761880_at) / RFU 11764098_at / Fold change /veh 11764098_at / RFU SAMD14 (11745864_x_at) / Fold change /veh SAMD14 (11745864_x_at) / RFU NPB (11741838_a_at) / Fold change /veh NPB (11741838_a_at) / RFU TMPRSS6 (11731388_a_at) / Fold change /veh TMPRSS6 (11731388_a_at) / RFU KRTAP10-2 (11738614_at) / Fold change /veh KRTAP10-2 (11738614_at) / RFU ARHGAP8 /// PRR5-ARHGAP8 (11727945_x_at) / Fold change /veh ARHGAP8 /// PRR5-ARHGAP8 (11727945_x_at) / RFU KRTAP5-7 /// NADSYN1 (11734609_at) / Fold change /veh KRTAP5-7 /// NADSYN1 (11734609_at) / RFU RASL12 (11751679_a_at) / Fold change /veh RASL12 (11751679_a_at) / RFU CDKN2B (11736163_a_at) / Fold change /veh CDKN2B (11736163_a_at) / RFU PRF1 (11729649_at) / Fold change /veh PRF1 (11729649_at) / RFU, ZNF638 /// ZNF638-IT1 / Fold change vs veh, ZNF638 /// ZNF638-IT1 / RFU, PANK3 / Fold change vs veh, PANK3 / RFU, SH3YL1 / Fold change vs veh, SH3YL1 / RFU, ZEB2 / Fold change vs veh, ZEB2 / RFU, NRIP1 / Fold change vs veh, NRIP1 / RFU, PTTG1IP / Fold change vs veh, PTTG1IP / RFU, CAPN2 / Fold change vs veh, CAPN2 / RFU, MED14 / Fold change vs veh, MED14 / RFU, SNORA58 / Fold change vs veh, SNORA58 / RFU, C1orf63 / Fold change vs veh, C1orf63 / RFU, LRRFIP1 / Fold change vs veh, LRRFIP1 / RFU, NDUFAF7 / Fold change vs veh, NDUFAF7 / RFU, SLC12A2 / Fold change vs veh, SLC12A2 / RFU, IBTK / Fold change vs veh, IBTK / RFU, ESF1 / Fold change vs veh, ESF1 / Fold change vs veh, TMEM50B / RFU, TAOK1 / Fold change vs veh, TAOK1 / RFU, ACBD3 / Fold change vs veh, ACBD3 / RFU, TMA16 / Fold change vs veh, TMA16 / RFU, RWDD3 / Fold change vs veh, RWDD3 / RFU, BCAT1 / Fold change vs veh, BCAT1 / RFU, EDEM3 / Fold change vs veh, EDEM3 / RFU, TMEM33 / Fold change vs veh, TMEM33 / RFU, WDR75 / Fold change vs veh, WDR75 / RFU, AHCTF1 / Fold change vs veh, AHCTF1 / RFU, TFRC / Fold change vs veh, TFRC / RFU, ZDHHC17 / Fold change vs veh, ZDHHC17 / RFU, NOM1 / Fold change vs veh, NOM1 / RFU, ARL8B / Fold change vs veh, ARL8B / RFU, ZBTB11 / Fold change vs veh, ZBTB11 / RFU, TAMM41 / Fold change vs veh, TAMM41 / RFU, KIAA1704 /// LOC100996395 / Fold change vs veh, KIAA1704 /// LOC100996395 / RFU, ING1 / Fold change vs veh, ING1 / RFU, TRMT61B / Fold change vs veh, TRMT61B / RFU, FUBP3 / Fold change vs veh, FUBP3 / RFU, TP53 / Fold change vs veh, TP53 / RFU, TNKS2 / Fold change vs veh, TNKS2 / RFU, ZFP14 / Fold change vs veh, ZFP14 / RFU, ACTR2 / Fold change vs veh, ACTR2 / RFU, PPP3R1 / Fold change vs veh, PPP3R1 / RFU, PIK3R1 / Fold change vs veh, PIK3R1 / RFU, HNRNPA1 / Fold change vs veh, HNRNPA1 / RFU, RNF170 / Fold change vs veh, RNF170 / RFU, ZNF28 / Fold change vs veh, ZNF28 / RFU, RNGTT / Fold change vs veh, RNGTT / RFU, OGT / Fold change vs veh, OGT / RFU, BRD1 / Fold change vs veh, BRD1 / RFU, MARS / Fold change vs veh, MARS / RFU, ZNF655 / Fold change vs veh, ZNF655 / RFU, FAHD1 / Fold change vs veh, FAHD1 / RFU, BDP1 / Fold change vs veh, BDP1 / RFU, LRRCC1 / Fold change vs veh, LRRCC1 / RFU, ARID1A / Fold change vs veh, ARID1A / RFU, ZNF146 / Fold change vs veh, ZNF146 / RFU, ZNF330 / Fold change vs veh, ZNF330 / RFU, GPN3 / Fold change vs veh, GPN3 / RFU, C9orf123 / Fold change vs veh, C9orf123 / RFU, N4BP2L2 / Fold change vs veh, N4BP2L2 / RFU, ARFIP1 / Fold change vs veh, ARFIP1 / RFU, FAM179B / Fold change vs veh, FAM179B / RFU, BCL10 / Fold change vs veh, BCL10 / RFU, UHRF1BP1L / Fold change vs veh, UHRF1BP1L / RFU, BET1 / Fold change vs veh, BET1 / RFU, CNOT2 / Fold change vs veh, CNOT2 / RFU, ZNF268 / Fold change vs veh, ZNF268 / Fold change vs veh, ZNF507 / RFU, DGCR2 / Fold change vs veh, DGCR2 / RFU, WDSUB1 / Fold change vs veh, WDSUB1 / Fold change vs veh, HSP90B1 /// MIR3652 / RFU, ADSS / Fold change vs veh, ADSS / RFU, GK / Fold change vs veh, GK / RFU, ZNF148 / Fold change vs veh, ZNF148 / RFU, TAF9 / Fold change vs veh, TAF9 / RFU, SLC1A5 / Fold change vs veh, SLC1A5 / RFU, SLMO2 / Fold change vs veh, SLMO2 / RFU, ABCC4 / Fold change vs veh, ABCC4 / RFU, LOC101060439 /// RAP1B / Fold change vs veh, LOC101060439 /// RAP1B / RFU, RFX7 / Fold change vs veh, RFX7 / RFU, GTPBP10 / Fold change vs veh, GTPBP10 / RFU, CNEP1R1 / Fold change vs veh, CNEP1R1 / RFU, BIVM-ERCC5 /// ERCC5 / Fold change vs veh, BIVM-ERCC5 /// ERCC5 / RFU, ILF3 / Fold change vs veh, ILF3 / RFU 11762660_at / Fold change /veh 11762660_at / RFU VCAN (11757783_s_at) / Fold change /veh VCAN (11757783_s_at) / RFU DDX43 (11728927_at) / Fold change /veh DDX43 (11728927_at) / RFU KRT8 (11758188_x_at) / Fold change /veh KRT8 (11758188_x_at) / RFU NKD1 (11759106_at) / Fold change /veh NKD1 (11759106_at) / RFU SRD5A1 (11742802_a_at) / Fold change /veh SRD5A1 (11742802_a_at) / RFU TPSAB1 /// TPSB2 (11721975_s_at) / Fold change /veh TPSAB1 /// TPSB2 (11721975_s_at) / RFU GSTM3 (11746129_a_at) / Fold change /veh GSTM3 (11746129_a_at) / RFU IL23R (11737362_x_at) / Fold change /veh IL23R (11737362_x_at) / RFU TMEM51 (11727254_a_at) / Fold change /veh TMEM51 (11727254_a_at) / RFU PIWIL2 (11732686_x_at) / Fold change /veh PIWIL2 (11732686_x_at) / RFU ORM1 (11744905_x_at) / Fold change /veh ORM1 (11744905_x_at) / RFU CCDC152 (11743942_at) / Fold change /veh CCDC152 (11743942_at) / RFU ECM1 (11717891_a_at) / Fold change /veh ECM1 (11717891_a_at) / RFU IL23R (11748794_a_at) / Fold change /veh IL23R (11748794_a_at) / RFU TNFAIP8L3 (11732012_x_at) / Fold change /veh TNFAIP8L3 (11732012_x_at) / RFU MBOAT4 (11741988_at) / Fold change /veh MBOAT4 (11741988_at) / RFU 11764193_at / Fold change /veh 11764193_at / RFU TMEM53 (11763286_at) / Fold change /veh TMEM53 (11763286_at) / RFU MAGEB2 (11727129_at) / Fold change /veh MAGEB2 (11727129_at) / RFU TMEM200A (11744735_a_at) / Fold change /veh TMEM200A (11744735_a_at) / RFU CCDC152 (11751479_a_at) / Fold change /veh CCDC152 (11751479_a_at) / RFU FAM211A (11726209_a_at) / Fold change /veh FAM211A (11726209_a_at) / RFU RGS16 (11746705_a_at) / Fold change /veh RGS16 (11746705_a_at) / RFU VCAN (11755009_s_at) / Fold change /veh VCAN (11755009_s_at) / RFU RHOB (11743442_s_at) / Fold change /veh RHOB (11743442_s_at) / RFU RGS16 (11720943_a_at) / Fold change /veh RGS16 (11720943_a_at) / RFU RGS16 (11720944_at) / Fold change /veh RGS16 (11720944_at) / RFU, VPS4B / Fold change vs veh, VPS4B / RFU, CREB1 / Fold change vs veh, CREB1 / RFU, DNAJC13 / Fold change vs veh, DNAJC13 / RFU, GNAQ / Fold change vs veh, GNAQ / RFU, CDK5R1 / Fold change vs veh, CDK5R1 / RFU, ZRANB3 / Fold change vs veh, ZRANB3 / RFU, CUL4A / Fold change vs veh, CUL4A / RFU, CCNY / Fold change vs veh, CCNY / RFU, UFL1 / Fold change vs veh, UFL1 / RFU, COG3 / Fold change vs veh, COG3 / RFU, DIAPH2 / Fold change vs veh, DIAPH2 / RFU, SKA2 / Fold change vs veh, SKA2 / RFU, AFF3 / Fold change vs veh, AFF3 / RFU, LMF1 / Fold change vs veh, LMF1 / RFU, IPO11 / Fold change vs veh, IPO11 / RFU, DFFB / Fold change vs veh, DFFB / RFU, FOXP1 / Fold change vs veh, FOXP1 / RFU, CARD8 / Fold change vs veh, CARD8 / RFU, STRN3 / Fold change vs veh, STRN3 / RFU, ADK / Fold change vs veh, ADK / RFU, RASSF2 / Fold change vs veh, RASSF2 / RFU, WIPF1 / Fold change vs veh, WIPF1 / RFU, LARP1B / Fold change vs veh, LARP1B / RFU, RASA1 / Fold change vs veh, RASA1 / RFU, RB1 / Fold change vs veh, RB1 / RFU, PPFIA1 / Fold change vs veh, PPFIA1 / RFU, MAT2A / Fold change vs veh, MAT2A / RFU, CCT5 / Fold change vs veh, CCT5 / RFU, WDR92 / Fold change vs veh, WDR92 / RFU, CUX1 / Fold change vs veh, CUX1 / RFU, TTC7A / Fold change vs veh, TTC7A / RFU, TMEM135 / Fold change vs veh, TMEM135 / RFU, DEPTOR / Fold change vs veh, DEPTOR / RFU, CPM / Fold change vs veh, CPM / RFU, DNAJB6 / Fold change vs veh, DNAJB6 / RFU, CACNA2D3 / Fold change vs veh, CACNA2D3 / RFU, DTX4 / Fold change vs veh, DTX4 / RFU, TFCP2 / Fold change vs veh, TFCP2 / RFU, GMCL1 /// GMCL1P1 / Fold change vs veh, GMCL1 /// GMCL1P1 / RFU, AEBP2 / Fold change vs veh, AEBP2 / RFU, SNHG1 /// SNORD22 /// SNORD25 /// SNORD26 /// SNORD27 /// SNORD28 /// SNORD29 /// SNORD31 / Fold change vs veh, SNHG1 /// SNORD22 /// SNORD25 /// SNORD26 /// SNORD27 /// SNORD28 /// SNORD29 /// SNORD31 / Fold change (Aza/veh), C12orf56 (ProbeSet 11735607_a_at) / Fold change (ACY-1035/veh), C12orf56 (ProbeSet 11735607_a_at) / Fold change (Aza/veh), FGFR1OP (ProbeSet 11751329_s_at) / Fold change (ACY-1035/veh), FGFR1OP (ProbeSet 11751329_s_at) / Fold change (Aza/veh), VPS36 (ProbeSet 11739960_a_at) / Fold change (ACY-1035/veh), VPS36 (ProbeSet 11739960_a_at) / RFU SYPL1 (11715823_x_at) / Fold change /veh SYPL1 (11715823_x_at) / RFU IGFBP7 (11715501_s_at) / Fold change /veh IGFBP7 (11715501_s_at) / RFU REEP3 (11722064_at) / Fold change /veh REEP3 (11722064_at) / RFU IGLL1 (11728026_x_at) / Fold change /veh IGLL1 (11728026_x_at): dose or concentration left out as unconfirmed", "settings": "MV-4-11 cells, 48 hours"}
{"smiles": "Nc1ccc(-c2cccs2)cc1NC(=O)c1ccc2c(c1)cc(C1CC1)n2CCN1CCOCC1", "note": "[ACY-1035]", "values": [{"measurement": "Fold change /veh LINC00158 (11744669_a_at)", "value": 1.11}]}
